According to patent publication US7635716B2, “Substituted cyclopentanes or cyclopentanones as therapeutic agents” (Allergan, Inc., priority 2005, dated 2009):
pEC50: −log10 of the molar value. Like-named read-outs stand apart in the source and are kept apart here.

Legend:
Assay type in all cases: cell-based
hDP/Gqs5 = biological target: T1, hDP/Gqs5 (Homo sapiens, UniProt Q13258); experiment: FLIPR calcium signal, HEK-293(EBNA) cells
T1 construct: expressed in transfected cells; host or cells: HEK-293(EBNA) cells
T1 sequence (Q13258 1-359): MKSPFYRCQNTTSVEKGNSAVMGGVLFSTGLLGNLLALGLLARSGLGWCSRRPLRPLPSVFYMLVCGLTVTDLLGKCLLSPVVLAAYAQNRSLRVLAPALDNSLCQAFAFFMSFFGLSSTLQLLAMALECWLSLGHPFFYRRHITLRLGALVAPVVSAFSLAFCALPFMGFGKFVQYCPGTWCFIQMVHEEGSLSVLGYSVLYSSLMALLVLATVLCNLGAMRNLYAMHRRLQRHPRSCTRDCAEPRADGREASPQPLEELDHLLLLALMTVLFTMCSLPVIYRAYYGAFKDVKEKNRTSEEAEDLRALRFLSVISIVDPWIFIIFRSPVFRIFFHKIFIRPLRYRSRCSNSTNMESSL

hEP3A/Gqi5 = biological target: T2, hEP3A/Gqi5 (Homo sapiens, UniProt P43115); experiment: FLIPR calcium signal, HEK-293(EBNA) cells
T2 construct: expressed in transfected cells; host or cells: HEK-293(EBNA) cells
T2 sequence (P43115 1-390): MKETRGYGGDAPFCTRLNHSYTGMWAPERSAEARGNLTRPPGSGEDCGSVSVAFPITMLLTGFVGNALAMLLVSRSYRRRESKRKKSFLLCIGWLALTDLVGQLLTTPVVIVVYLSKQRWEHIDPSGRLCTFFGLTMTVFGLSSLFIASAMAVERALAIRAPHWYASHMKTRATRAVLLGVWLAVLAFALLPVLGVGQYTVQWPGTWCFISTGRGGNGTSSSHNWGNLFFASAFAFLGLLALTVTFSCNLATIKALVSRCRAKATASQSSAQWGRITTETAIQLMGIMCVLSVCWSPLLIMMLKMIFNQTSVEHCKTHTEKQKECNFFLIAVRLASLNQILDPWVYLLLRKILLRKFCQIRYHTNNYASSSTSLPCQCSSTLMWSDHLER

hEP4/Gqs5 = biological target: T3, hEP4/Gqs5 (Homo sapiens, UniProt P35408); experiment: FLIPR calcium signal, HEK-293(EBNA) cells
T3 construct: expressed in transfected cells; host or cells: HEK-293(EBNA) cells
T3 sequence (P35408 whole entry): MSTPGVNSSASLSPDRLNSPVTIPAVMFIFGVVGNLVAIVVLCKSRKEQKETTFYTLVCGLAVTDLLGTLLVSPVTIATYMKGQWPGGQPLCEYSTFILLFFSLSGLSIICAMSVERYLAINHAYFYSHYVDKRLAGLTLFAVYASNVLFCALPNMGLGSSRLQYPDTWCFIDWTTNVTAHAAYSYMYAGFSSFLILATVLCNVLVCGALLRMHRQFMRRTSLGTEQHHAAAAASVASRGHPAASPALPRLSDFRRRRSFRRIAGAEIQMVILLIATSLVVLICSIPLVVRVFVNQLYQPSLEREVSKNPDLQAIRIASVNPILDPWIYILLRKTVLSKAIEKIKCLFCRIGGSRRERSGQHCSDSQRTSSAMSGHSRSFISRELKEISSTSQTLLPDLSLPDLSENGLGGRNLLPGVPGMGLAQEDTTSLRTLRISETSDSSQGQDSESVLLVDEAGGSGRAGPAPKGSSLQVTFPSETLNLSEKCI
Summary of the method: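 Peak Fluo-4 fluorescence (2 µM dye loading, 45 min) was recorded in HEK-293(EBNA) cells stably expressing each human receptor, in HBSS-HEPES pH 7.4 at 37 °C. Signals were expressed relative to buffer and standard agonist controls: PGE2 (EP2, EP4), PGF2 (FP), carbacyclin (IP). Compounds were tested at 10^−5 M or from 10^−5 to 10^−11 M, in duplicate, n≧3.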

hTP = biological target: T4, hTP (Homo sapiens, UniProt P21731); experiment: FLIPR calcium signal, HEK-293(EBNA) cells
T4 construct: expressed in transfected cells; host or cells: HEK-293(EBNA) cells
T4 sequence (P21731 1-343): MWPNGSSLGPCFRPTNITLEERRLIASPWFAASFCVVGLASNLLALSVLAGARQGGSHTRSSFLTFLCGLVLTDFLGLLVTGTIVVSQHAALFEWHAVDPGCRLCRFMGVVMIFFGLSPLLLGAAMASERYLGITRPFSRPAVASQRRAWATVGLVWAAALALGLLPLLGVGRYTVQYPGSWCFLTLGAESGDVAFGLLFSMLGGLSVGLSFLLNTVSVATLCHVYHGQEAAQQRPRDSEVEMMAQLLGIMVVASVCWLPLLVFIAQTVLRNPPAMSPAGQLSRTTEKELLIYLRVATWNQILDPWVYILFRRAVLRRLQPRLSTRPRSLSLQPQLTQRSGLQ

hEP2 = hEP2 (Homo sapiens, UniProt P43116); experiment: hEP2 cAMP functional assay; settings: Table 1, second part
Sequence of hEP2 (P43116 whole entry): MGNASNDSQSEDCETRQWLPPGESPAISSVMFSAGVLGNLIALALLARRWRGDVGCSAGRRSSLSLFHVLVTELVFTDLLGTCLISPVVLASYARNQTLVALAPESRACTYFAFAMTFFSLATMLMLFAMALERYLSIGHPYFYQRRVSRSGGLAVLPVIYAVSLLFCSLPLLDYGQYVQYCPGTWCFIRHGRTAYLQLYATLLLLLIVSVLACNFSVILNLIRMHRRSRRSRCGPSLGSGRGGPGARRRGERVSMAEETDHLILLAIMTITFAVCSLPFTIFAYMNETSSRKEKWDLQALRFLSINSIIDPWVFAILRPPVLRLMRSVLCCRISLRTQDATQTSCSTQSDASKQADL

hEP1 = biological target: T5, hEP1 (Homo sapiens, UniProt P34995); experiment: FLIPR calcium signal, HEK-293(EBNA) cells
T5 construct: expressed in transfected cells; host or cells: HEK-293(EBNA) cells
T5 sequence (P34995 1-402): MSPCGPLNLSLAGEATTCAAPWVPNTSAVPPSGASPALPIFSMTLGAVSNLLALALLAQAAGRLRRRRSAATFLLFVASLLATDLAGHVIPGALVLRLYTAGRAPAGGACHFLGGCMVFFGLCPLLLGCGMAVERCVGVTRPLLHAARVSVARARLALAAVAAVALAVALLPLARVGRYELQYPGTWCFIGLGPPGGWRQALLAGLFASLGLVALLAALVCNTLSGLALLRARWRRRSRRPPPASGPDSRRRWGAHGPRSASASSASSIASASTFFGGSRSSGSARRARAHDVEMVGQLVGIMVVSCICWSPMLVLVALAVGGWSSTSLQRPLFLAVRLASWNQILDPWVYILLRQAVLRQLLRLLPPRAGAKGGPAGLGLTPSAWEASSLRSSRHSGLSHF

[1] = Table 1, first part, triplicate, read-out: functional data (EC50) hDP
[2] = Table 1, second part, quantity not given, values match functional data (EC50) of first part, read-out: Other Receptors hDP
[3] = Table 1, first part, data represents a single experiment, read-out: functional data (EC50) hEP3A*
[4] = Table 1, second part, quantity not given, values match functional data (EC50) of first part, read-out: Other Receptors hEP3
[5] = Table 1, first part, triplicate, read-out: functional data (EC50) hEP4
[6] = Table 1, first part, triplicate, read-out: functional data (EC50) hTP
[7] = Table 1, second part, quantity not given, values match functional data (EC50) of first part, read-out: Other Receptors hTP
[8] = Table 1, first part, triplicate, read-out: functional data (EC50) hEP1
[9] = Table 1, second part, quantity not given, values match functional data (EC50) of first part, read-out: Other Receptors hEP1
[10] = Table 1, second part, read-out: hEP4 flipr EC50

Molecule | pEC50 (hDP/Gqs5; [1]) | pEC50 (hDP/Gqs5; [2]) | pEC50 (hEP3A/Gqi5; [3]) | pEC50 (hEP3A/Gqi5; [4]) | pEC50 (hEP4/Gqs5; [5]) | pEC50 (hTP; [6]) | pEC50 (hTP; [7]) | pEC50 (hEP2) | pEC50 (hEP1; [8]) | pEC50 (hEP1; [9]) | pEC50 (hEP4/Gqs5; [10])
O=C(O)CCCCCC[C@H]1C(=O)CC[C@@H]1COc1ccccc1 [Example 6, 7-((1R,5S)-2-Oxo-5-phenoxymethyl-cyclopentyl)-heptanoic acid] | < 5.00 | < 5.00 | 5.45 | 5.45 | 5.10 | < 5.00 | < 5.00 | 6.63 |  |  | 
O=C(O)CCC/C=C\C[C@@H]1[C@@H](COc2ccccc2)[C@H](O)C[C@H]1Cl [Example 8, (Z)-7-((1R,2S,3R,5R)-5-Chloro-3-hydroxy-2-phenoxymethyl-cyclopentyl)-hept-5-enoic acid] | < 5.00 | < 5.00 | 5.13 | 5.13 | 5.49 | < 5.00 | < 5.00 |  | < 5.00 | < 5.00 | 
O=C(O)CCCCCC[C@@H]1[C@@H](COc2ccccc2)[C@H](O)C[C@H]1Cl [Example 10, 7-((1R,2S,3R,5R)-5-Chloro-3-hydroxy-2-phenoxymethyl-cyclopentyl)-heptanoic acid] | < 5.00 | < 5.00 | 5.45 | 5.45 | 5.14 | < 5.00 | < 5.00 | 7.33 | < 5.00 | < 5.00 | 
O=C(O)CCC/C=C\C[C@@H]1[C@@H](COc2cc(Cl)cc(Cl)c2)[C@H](O)C[C@H]1Cl [Example 12, (Z)-7-[(1R,2S,3R,5R)-5-Chloro-2-(3,5-dichloro-phenoxymethyl)-3-hydroxy-cyclopentyl]-hept-5-enoic acid] | < 5.00 | < 5.00 | 5.90 | 5.90 | 7.32 | < 5.00 | < 5.00 | 9.05 | < 5.00 | < 5.00 | 7.32
O=C(O)CCCCCC[C@@H]1[C@@H](COc2cc(Cl)cc(Cl)c2)[C@H](O)C[C@H]1Cl [Example 14, 7-[(1R,2S,3R,5R)-5-Chloro-2-(3,5-dichloro-phenoxymethyl)-3-hydroxy-cyclopentyl]-heptanoic acid] | < 5.00 | < 5.00 | 5.46 | 5.46 | 6.82 | < 5.00 | < 5.00 | 7.85 | < 5.00 | < 5.00 | 
(Z)-7-((1R,2S,3R)-3-Hydroxy-5-oxo-2-phenoxymethyl-cyclopentyl)-hept-5-enoic acid [Example 4] |  |  | 4.73 |  | < 5.00 | < 5.00 |  |  | < 5.00 |  | 6.44
(Z)-7-((1R,5S)-2-Oxo-5-phenoxymethyl-cyclopent-3-enyl)-hept-5-enoic acid [Example 3] |  |  |  | 4.73 | 6.44 |  | < 5.00 |  |  | < 5.00 | < 5.00
